Experiments:
[1] = molecular target: T1, Growth hormone secretagogue receptor type 1 (Homo sapiens, UniProt Q92847); experiment: Displacement of [35S]MK677 from human ghrelin receptor expressed in african green monkey COS7 cells; assay type: cell-based, COS-7
[2] = molecular target: T1, Growth hormone secretagogue receptor type 1; experiment: Inverse agonist activity at human ghrelin receptor expressed in african green monkey COS7 cells assessed as constitutively stimulated inositol phosphate accumulation; assay type: functional, cell-based, COS-7

T1 sequence (Q92847 whole entry): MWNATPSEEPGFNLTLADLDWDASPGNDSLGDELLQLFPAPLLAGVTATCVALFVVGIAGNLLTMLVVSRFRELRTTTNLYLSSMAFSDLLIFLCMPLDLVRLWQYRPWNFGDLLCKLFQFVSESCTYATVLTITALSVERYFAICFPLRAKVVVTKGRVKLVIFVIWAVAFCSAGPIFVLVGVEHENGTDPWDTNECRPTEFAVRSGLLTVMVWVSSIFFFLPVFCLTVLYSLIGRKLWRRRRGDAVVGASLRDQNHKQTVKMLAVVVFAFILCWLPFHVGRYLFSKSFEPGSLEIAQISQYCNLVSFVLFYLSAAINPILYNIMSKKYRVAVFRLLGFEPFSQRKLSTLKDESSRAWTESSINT

Row | Compound | IC50 [1] [nM] | IC50 [2] [nM]
1 | NC(=O)CNC(=O)CNC(=O)[C@@H](Cc1c[nH]c2ccccc12)NC(=O)[C@H](Cc1ccccc1)NC(=O)[C@H](N)Cc1c[nH]c2ccccc12 | 540 | 159
2 | C[C@H](NC(=O)[C@H](C)NC(=O)[C@@H](Cc1c[nH]c2ccccc12)NC(=O)[C@H](Cc1ccccc1)NC(=O)[C@H](N)Cc1c[nH]c2ccccc12)C(N)=O | > 1000 | > 1000
3 | CC(C)C[C@H](NC(=O)[C@H](CC(C)C)NC(=O)[C@@H](Cc1c[nH]c2ccccc12)NC(=O)[C@H](Cc1ccccc1)NC(=O)[C@H](N)Cc1c[nH]c2ccccc12)C(N)=O | 530 | > 1000

Now those with a lower IC50 [1], led by results:

Row | IC50 [1] [nM] | IC50 [2] [nM] | Compound
4 | 120 | 990 | CC(C)C[C@H](NC(=O)[C@H](CC(C)C)NC(=O)[C@@H](Cc1c[nH]c2ccccc12)NC(=O)[C@H](Cc1ccccc1)NC(=O)[C@@H](Cc1c[nH]c2ccccc12)NC(=O)[C@@H](N)CCC(N)=O)C(N)=O
5 | 60 | 260 | CC(C)C[C@H](NC(=O)[C@H](CC(C)C)NC(=O)[C@@H](Cc1c[nH]c2ccccc12)NC(=O)[C@H](Cc1ccccc1)NC(=O)[C@@H](Cc1c[nH]c2ccccc12)NC(=O)[C@@H](N)CC(=O)O)C(N)=O

Source: ChEMBL document CHEMBL1156448, “Identification of an efficacy switch region in the ghrelin receptor responsible for interchange between agonism and inverse agonism” (J Biol Chem, 2007)
